Measurements from the Deep4Chem optical property database.
Values joined by “and” are separate entries in the source; they are usually repeats but may differ in a detail not shown here. Identical values can stand only once.

Test: photoluminescence quantum yield (fraction); solvent given as SMILES

## CCN(CC)c1ccc2cc(C#N)c(=N)oc2c1
In ClCCl
  photoluminescence quantum yield: 0.84

## COc1ccc2c3c(c4ccc(OC)cc4c2c1)C(C)(C)c1ccccc1-3
In C1CCCCC1
  photoluminescence quantum yield: 0.19

## F[B-]1(F)n2c(-c3ccccc3)cc(-c3cccs3)c2N=C2C(c3cccs3)=CC(c3ccccc3)=[N+]21
In ClCCl
  photoluminescence quantum yield: 0.1

## Cc1cc(=O)oc2cc3c4ccc(C(C)(C)C)cc4c4cc(C(C)(C)C)ccc4c3cc12
In ClC(Cl)Cl
  photoluminescence quantum yield: 0.14

## c1ccc(-c2ccc(-c3ccc(-n4c5ccccc5c5ccccc54)cc3)c3nsnc23)cc1
In C1CCOC1
  photoluminescence quantum yield: 0.426
In CC(C)=O
  photoluminescence quantum yield: 0.059
In CCCCCC
  photoluminescence quantum yield: 0.697
In CCOCC
  photoluminescence quantum yield: 0.599

## CCCCCCCCC1(CCCCCCCC)c2cc(-c3ccc(C(F)(F)F)cc3)ccc2-c2ccc(N(c3ccc(-n4c5ccccc5c5ccccc54)cc3)c3ccc4c(c3)C(CCCCCCCC)(CCCCCCCC)c3cc(-c5ccc(C(F)(F)F)cc5)ccc3-4)cc21
In C1CCOC1
  photoluminescence quantum yield: 0.61
In C1COCCO1
  photoluminescence quantum yield: 0.71
In CC#N
  photoluminescence quantum yield: 0.46
In CC(C)=O
  photoluminescence quantum yield: 0.51
In CCCCCC
  photoluminescence quantum yield: 0.6
In CCCCOCCCC
  photoluminescence quantum yield: 0.67
In CCN(CC)CC
  photoluminescence quantum yield: 0.52
In CCOC(C)=O
  photoluminescence quantum yield: 0.54
In CCOCC
  photoluminescence quantum yield: 0.76
In CN(C)C=O
  photoluminescence quantum yield: 0.52
In CS(C)=O
  photoluminescence quantum yield: 0.47
In Cc1ccccc1
  photoluminescence quantum yield: 0.67
In ClC(Cl)Cl
  photoluminescence quantum yield: 0.47
In ClCCl
  photoluminescence quantum yield: 0.57
In c1ccccc1
  photoluminescence quantum yield: 0.63

## O=Cc1ccc(C#CC(C#Cc2ccc(C=O)o2)=Cc2ccc(C=C(C#Cc3ccc(C=O)o3)C#Cc3ccc(C=O)o3)cc2)o1
In ClC(Cl)Cl
  photoluminescence quantum yield: 0.11

## Cn1c(=O)c(/N=N/c2cc(S(=O)(=O)O)ccc2C(=O)O)c(O)c2ccccc21
In CS(C)=O
  photoluminescence quantum yield: 0.06

## COc1cc2c(cc1OC)C1=C[C@H](c3ccc(Cl)cc3)C3(C(C#N)=C(C#N)N1CC2)c1ccccc1-c1ccccc13
In ClCCl
  photoluminescence quantum yield: 0.00044

## Cc1ccc(C2=[N+]3C(=Cc4c(C)cc(C)n4[B-]3(F)F)c3ccccc32)[nH]1
In C1CCOC1
  photoluminescence quantum yield: 0.82
In CC#N
  photoluminescence quantum yield: 0.84
In CCCCCC
  photoluminescence quantum yield: 0.91
In CO
  photoluminescence quantum yield: 0.83
In Cc1ccccc1
  photoluminescence quantum yield: 0.83
In ClCCl
  photoluminescence quantum yield: 0.89

## C(=C1c2ccccc2CCc2ccccc21)c1ccc(-c2ccc(C=C3c4ccccc4CCc4ccccc43)cc2)cc1
In C1CCOC1
  photoluminescence quantum yield: 0.0033

## F[B-]1(F)n2c(cc3c4ccccc4c4ccccc4c32)-c2ccc3ccccc3[n+]21
In ClCCl
  photoluminescence quantum yield: 0.9

## O=C([O-])c1ccc2cc3cc(C(=O)[O-])ccc3cc2c1
In CN(C)C=O
  photoluminescence quantum yield: 0.11

## COc1cc2c3c(c4cc(OC)c(OC)c(OC)c4c2c(OC)c1OC)=[N+]1C(=C(c2c(C)cc(C)cc2C)c2cc4c5cc(OC)c(OC)c(OC)c5c5c(OC)c(OC)c(OC)cc5c4n2[B-]1(F)F)C=3
In C1CCCCC1
  photoluminescence quantum yield: 0.1
In C1CCOC1
  photoluminescence quantum yield: 0.001
In CC#N
  photoluminescence quantum yield: 0.001
In Cc1ccccc1
  photoluminescence quantum yield: 0.001
In ClCCl
  photoluminescence quantum yield: 0.001

## CC(=O)c1ccc(-c2nc3ccc(N(C)C)cc3s2)cc1
In C1CCCCC1
  photoluminescence quantum yield: 0.88
In CC#N
  photoluminescence quantum yield: 0.88
In CO
  photoluminescence quantum yield: 0.041
In ClC(Cl)Cl
  photoluminescence quantum yield: 0.99

## CC(C)c1ccc2ccc3c(C(C)C)ccc4ccc1c2c43
In CCCCCC
  photoluminescence quantum yield: 0.45
In CO
  photoluminescence quantum yield: 0.55
In ClCCl
  photoluminescence quantum yield: 0.39

## C(=C\N1CCCC1)/c1nc2ccccc2nc1-c1ccccc1
In C1CCCCC1
  photoluminescence quantum yield: 0.186
In C1CCOC1
  photoluminescence quantum yield: 0.445
In CC#N
  photoluminescence quantum yield: 0.199
In CC(C)=O
  photoluminescence quantum yield: 0.284
In CCO
  photoluminescence quantum yield: 0.023
In CO
  photoluminescence quantum yield: 0.006
In CS(C)=O
  photoluminescence quantum yield: 0.112
In Cc1ccccc1
  photoluminescence quantum yield: 0.49
In ClCCl
  photoluminescence quantum yield: 0.598

## C(S/C=C/c1ccc(/C=C/SC=C2CCCC2)cc1)=C1CCCC1
In ClCCl
  photoluminescence quantum yield: 0.021

## CC1=CC(C)=[N+]2C1=C(c1ccc(-c3c4ccccc4c(-c4ccccc4)c4ccccc34)cc1)c1c(C)cc(C)n1[B-]2(F)F
In CC#N
  photoluminescence quantum yield: 0.11
In CCCCCC
  photoluminescence quantum yield: 0.7
In CCO
  photoluminescence quantum yield: 0.37
In CN(C)C=O
  photoluminescence quantum yield: 0.13
In Cc1ccccc1
  photoluminescence quantum yield: 0.65
In ClCCl
  photoluminescence quantum yield: 0.57

## CC(C)(C)c1ccc(C2=C(c3ccc(-n4c5ccccc5c5ccccc54)cc3)S(=O)(=O)c3c2sc(-c2ccc(-n4c5ccccc5c5ccccc54)cc2)c3-c2ccc(C(C)(C)C)cc2)cc1
In C1CCOC1
  photoluminescence quantum yield: 0.056

## COc1ccc(-c2cc(-c3ccccc3)nn2C)cc1
In ClCCl
  photoluminescence quantum yield: 0.21

## O=c1oc2ccccc2cc1-c1ccc([N+](=O)[O-])cc1
In C1CCOC1
  photoluminescence quantum yield: 0.006
In CC#N
  photoluminescence quantum yield: 0.0022
In CS(C)=O
  photoluminescence quantum yield: 0.0013
In ClC(Cl)Cl
  photoluminescence quantum yield: 0.013

## COc1cc(OC)cc(C2=CC(c3ccccc3)=C(c3ccccc3)C2)c1
In ClCCl
  photoluminescence quantum yield: 0.0361

## COc1ccc(-c2cc(-c3ccc(C)cc3)nc3c(C#N)c(N4CCCC4)nc(N)c23)cc1
In CC#N
  photoluminescence quantum yield: 0.06
In c1ccccc1
  photoluminescence quantum yield: 0.084

## O=C1OC(c2ccccc2)=N/C1=C\c1ccc(N(c2ccccc2)c2ccccc2)cc1
In C1CCCCC1
  photoluminescence quantum yield: 0.031
In C1CCOC1
  photoluminescence quantum yield: 0.108
In C1COCCO1
  photoluminescence quantum yield: 0.045
In CC1CCCCC1
  photoluminescence quantum yield: 0.043
In CC#N
  photoluminescence quantum yield: 0.014
In CC(C)=O
  photoluminescence quantum yield: 0.055
In CC(C)CC(C)(C)C
  photoluminescence quantum yield: 0.028
In CCCCC
  photoluminescence quantum yield: 0.029
In CCCCCC
  photoluminescence quantum yield: 0.031
In CCCCCCC
  photoluminescence quantum yield: 0.034
In CCCCOCCCC
  photoluminescence quantum yield: 0.036
In CCOC(C)=O
  photoluminescence quantum yield: 0.095
In CCOCC
  photoluminescence quantum yield: 0.072
In CN(C)C=O
  photoluminescence quantum yield: 0.014
In CS(C)=O
  photoluminescence quantum yield: 0.012
In Cc1ccccc1
  photoluminescence quantum yield: 0.034
In ClC(Cl)Cl
  photoluminescence quantum yield: 0.028

## COc1ccc(-c2cc(-c3ccc(OC)cc3)c3c(N)nc(N4CCCC4)c(C#N)c3n2)cc1
In CC#N
  photoluminescence quantum yield: 0.095
In c1ccccc1
  photoluminescence quantum yield: 0.077

## CC(C)[Si](C#Cc1c2cc3ccccc3cc2c(C#Cc2ccccc2)c2cc3ccccc3cc12)(C(C)C)C(C)C
In ClCCl
  photoluminescence quantum yield: 0.12

## c1ccc(-c2nnc(-c3ccc(N4c5ccccc5N(c5ccccc5)c5ccccc54)cc3)o2)cc1
In Cc1ccccc1
  photoluminescence quantum yield: 0.12
In c1cc(-n2c3ccccc3c3ccccc32)cc(-n2c3ccccc3c3ccccc32)c1
  photoluminescence quantum yield: 0.45

## C[Si](C)(C)C#Cc1ccc(C#C[Si](C)(C)C)c2ccccc12
In C1CCCCC1
  photoluminescence quantum yield: 0.85

## Clc1ccc(-c2cccc3ncc(-c4ccccc4)n23)cc1
In ClCCl
  photoluminescence quantum yield: 0.42

## C#CCOc1ccc(/C=C/C2=[N+]3C(=C(c4ccc(N(C)CC)cc4)c4c(C)cc(C)n4[B-]3(F)F)C(C)=C2)cc1
In CO
  photoluminescence quantum yield: 0.84

## CN(C)c1ccc(/C=C/C=C/c2nc3ccccc3o2)cc1
In CC#N
  photoluminescence quantum yield: 0.0055
In CCCCCC
  photoluminescence quantum yield: 0.0176
In CCCCO
  photoluminescence quantum yield: 0.0045
In CCCO
  photoluminescence quantum yield: 0.0045
In CCO
  photoluminescence quantum yield: 0.0048
In CN(C)C=O
  photoluminescence quantum yield: 0.007
In CO
  photoluminescence quantum yield: 0.0045
In Cc1ccccc1
  photoluminescence quantum yield: 0.0078
In ClCCl
  photoluminescence quantum yield: 0.0048
In OCC(O)CO
  photoluminescence quantum yield: 0.0359
In OCCO
  photoluminescence quantum yield: 0.0088

## CN(C)c1ccc2nc(-c3ccc(/C=N/c4ccccc4)cc3)sc2c1
In C1CCCCC1
  photoluminescence quantum yield: 0.057
In CC#N
  photoluminescence quantum yield: 0.72
In CO
  photoluminescence quantum yield: 0.067
In ClC(Cl)Cl
  photoluminescence quantum yield: 0.12

## Cc1cc(C)c(C2=C3C=CC(c4ccccc4O)=[N+]3[B-]3(c4ccccc4)Oc4ccccc4-c4ccc2n43)c(C)c1 (configuration not stated)
In ClC(Cl)Cl
  photoluminescence quantum yield: 0.65

## c1ccc(-c2nc3c(-c4ccc(N(c5ccccc5)c5ccccc5)cc4)ccc(-c4ccc(N(c5ccccc5)c5ccccc5)cc4)c3nc2-c2ccccc2)cc1
In ClC(Cl)Cl
  photoluminescence quantum yield: 0.51

## CCCCCCCCOc1ccc(-c2c3c4n(c(-c5ccc(OCCCCCCCC)cc5)c3c3n2[B-](F)(F)[n+]2c(ccc5ccccc52)N=3)[B-](F)(F)[n+]2c(ccc3ccccc32)N=4)cc1
In ClC(Cl)Cl
  photoluminescence quantum yield: 0.83

## COc1ccc2cc(C3=[N+]4C(=Nc5c(-c6ccccc6)cc(-c6ccc7cc(OC)ccc7c6)n5[B-]4(F)F)C(c4ccccc4)=C3Br)ccc2c1
In ClC(Cl)Cl
  photoluminescence quantum yield: 0.12
In ClCCl
  photoluminescence quantum yield: 0.12

## COc1cccc(-c2nc3c([nH]2)C2=CC(=O)S[C@]2(C)[C@@]2(C)SC(=O)C=C32)c1OC
In CC#N
  photoluminescence quantum yield: 0.12

## Cc1cc(C)c([B-]2(c3c(C)cc(C)cc3C)[O+]=P(c3ccccc3)(c3ccccc3)c3cc(-c4ccccc4)sc3-c3sc(-c4ccccc4)cc32)c(C)c1
In C1CCOC1
  photoluminescence quantum yield: 0.58

## CC[N+]1(CC)CN2C(=N1)C(C(=O)O)=Cc1cc(F)ccc12
In O
  photoluminescence quantum yield: 0.344

## F[B-]1(F)n2c(nc(-c3ccccc3)c2-c2ccccc2)-c2cccc[n+]21
In C1CCCCC1
  photoluminescence quantum yield: 0.34
In C1CCOC1
  photoluminescence quantum yield: 0.17
In C1COCCO1
  photoluminescence quantum yield: 0.26
In CC#N
  photoluminescence quantum yield: 0.1 and 0.19
In CCCCCC
  photoluminescence quantum yield: 0.22 and 0.3
In CO
  photoluminescence quantum yield: 0.12 and 0.1
In ClC(Cl)Cl
  photoluminescence quantum yield: 0.23 and 0.3
In ClCCl
  photoluminescence quantum yield: 0.15

## CN(C)c1ccc(/C=C2\OC(=O)c3cc(N)ccc32)cc1
In CC#N
  photoluminescence quantum yield: 0.24
In CC(C)=O
  photoluminescence quantum yield: 0.26
In CC(C)CO
  photoluminescence quantum yield: 0.36
In CC(C)O
  photoluminescence quantum yield: 0.31
In CCCO
  photoluminescence quantum yield: 0.28
In CCO
  photoluminescence quantum yield: 0.22
In CCOC(C)=O
  photoluminescence quantum yield: 0.37
In CCOCC
  photoluminescence quantum yield: 0.4
In CO
  photoluminescence quantum yield: 0.22

## C1=Cc2ccccc2C(=Cc2ccc(-c3ccc(C=C4c5ccccc5-c5ccccc54)cc3)cc2)c2ccccc21
In C1CCOC1
  photoluminescence quantum yield: 0.00016

## COc1cc(/C=C/c2nc3ccccc3s2)c(OC)cc1/C=C/c1ccncc1
In C1CCOC1
  photoluminescence quantum yield: 0.75
In CC#N
  photoluminescence quantum yield: 0.5
In CN(C)C=O
  photoluminescence quantum yield: 0.67
In Cc1ccccc1
  photoluminescence quantum yield: 0.86

## N#Cc1ccc(-c2ccc3c(c2)c2cc(-c4ccc(C#N)cc4)ccc2c2c3nc(-c3ccc(N(c4ccccc4)c4ccccc4)cc3)n2-c2ccccc2)cc1
In C1CCOC1
  photoluminescence quantum yield: 0.42
In CC#N
  photoluminescence quantum yield: 0.23
In CCCCCC
  photoluminescence quantum yield: 0.9
In CCOCC
  photoluminescence quantum yield: 0.59

## c1cnc(-c2c3ccccc3c(-c3ncccn3)c3ccccc23)nc1
In ClCCl
  photoluminescence quantum yield: 0.79
